Each structure is given as a SMILES string. Like-named read-outs stand apart in the source and are kept apart here.

In general, IC50 refers to the concentration that gives 50% inhibition.

In data set [1] the target is T1, human erythrocyte acetylcholinesterase (Homo sapiens, UniProt P22303).
T1 construct: solution of hemolyzed erythrocytes diluted 400-fold; from tissue; host or cells: hemolyzed erythrocytes from blood of healthy human donors
The data set can be described thus: AChE inhibition, modified Ellman's method. Conditions: 200 µg/L; control 0.236 ± 0.032 A/min. Type of data set: biochemical. How it is done: (§1) The activity of both cholinesterases (AChE and BuChE) were assessed spectrophotometrically according to the Ellman’s method with some modifications by Worek et al.. This test development included experimental determination of the optimal testing conditions. For all measurements, 37 °C was used as the best temperature for enzymatic determinations in material of human origin.
(§2) The solution of plasma 200-fold diluted with 0.9% NaCl and solution of hemolyzed erythrocytes diluted 400-fold with 0.9% were incubated (37 °C, 15 min) with 5 μL DTNB (0.01 mol/L) and 10 μL tested compound at a wider range of concentration than the therapeutic range in order to assess the overall effect of the compound on human esterases (AChE and BuChE). The controls without antipsychotics, containing only DTNB and diluted plasma or diluted solution of hemolyzed erythrocytes, were prepared. […] The final volume of a sample was 500 μL. […] The maximal velocity of the reaction was determined on the basis of changes in absorbance over time.
(§3) AChE SI (selectivity index) was calculated by using the following formula: SI = IC50 of BuChE/IC50 of AChE. However, BuChE SI was defined as IC50 of AChE/IC50 of BuChE. Maximal velocity (Vmax) and the Michaelis constant (Km) were calculated with the use of linear regression—according to the Hanes–Woolf plot.
(In general: DTNB colorimetry detects thiols as they appear.)

Data set [2] concerns the target T2, human plasma butyrylcholinesterase (Homo sapiens, UniProt P06276).
T2 construct: The solution of plasma 200-fold diluted with 0.9% NaCl; from tissue; host or cells: citrated plasma from blood of healthy human donors
The data set can be described thus: BuChE inhibition, modified Ellman's method. Type of data set: biochemical. Conditions: 200 µg/L; control 0.349 ± 0.013 A/min. The procedure: as §1, §2, §3

The target of data set [3] is T3, recombinant human β-amyloid (1–42) (Homo sapiens, UniProt P05067).
T3 construct: recombinant human β-amyloid (1–42; ultrapure); purchased Sigma-Aldrich (St. Louis, MO, USA)
The data set is described as follows: Beta-amyloid aggregation, Thioflavin T fluorescence. Type of data set: biochemical. How it is done:
Aβ42 peptide was dissolved in DMSO and left to hydrate for a few minutes. The solution was centrifuged at 10,000 rpm for 5 min at 4 °C to separate any precipitated material. The solution at a concentration of 220 μmol/L was stored in small aliquots at a temperature of −30 °C and before each experiment it was restored at 37 °C for 15 min. Test samples containing Aβ42 solution at the final concentration of 20 μmol/L was incubated with antipsychotics at concentrations equaling their TPC and 1/2 × TPC (v = 10 µL). The final volume of the test samples was 100 μL. The positive control constituted a sample of Aβ42 peptide, whereas the negative control contained tannic acid at the final concentrations of 0.1 µmol/L and 10 µmol/L. The fibrillation reaction was set up by addition of thioflavin ThT dye at a concentration of 5 µmol/L. The fluorescence intensity was measured at room temperature with Ex/Em = 440 nm/484 nm (Synergy H1; BioTek, Winooski, VT, USA). The measurements of fluorescence intensity expressed as relative fluorescence units (RFU) were taken at 10, 30, 60 and 90 min and then after 24 and 48 h. The fluorescence intensity measured for control equaled 100% of Aβ aggregation and it was used to estimate the inhibitory properties of the tested antipsychotics.

Data set [4] deals with HUVEC cells. The data set can be described thus: WST-1 viability under AAPH-induced oxidative stress, HUVEC. The class given is cell-based, human. Particulars: AAPH 17.5 mmol/L, relative to pure medium control. How it is done:
(§4) WST-1 assay (Takara, Takara Bio Europe, Saint-Germain-en-Laye, France) was used to assess the effects of antipsychotics on the growth of HUVEC and astrocytes. The experiments were conducted as described previously. HUVEC were seeded at a density of 7500 cells, and astrocytes at 5000 cells per well on 96-well microplates and cultured for 24 h followed by treatment with compounds at ½ × TPCmax and TPCmax or pure medium as a control (v = 100 μL) for another 24 h (37 °C, 5% CO2). Subsequently, the cells were washed with culture medium (100 μL) and WST-1 reagent diluted in medium (10 μL of reagent + 90 μL of medium) was added. The plates were incubated at 37 °C in 5% CO2 for another 90 min for HUVEC and 60 min for astrocytes. The absorbance was read at 450 nm using a microplate reader (iMARK, Bio-Rad, Hercules, CA, USA). The cells viability was expressed as a percentage of the control samples which constituted 100% viability.
(§5) Moreover, the WST-1 assay was used to evaluate potential protective effects of antipsychotics on the growth of HUVEC and astrocytes under conditions of AAPH-induced oxidative stress. The experimental conditions were the same as in viability studies. AA at the final concentration of 10 μg/mL was used as an antioxidant control. After reaching the confluence, the antipsychotics were added at concentrations equaling ½ × TPCmax and TPCmax. After 1 h incubation under standard conditions, 50 μL AAPH was added to the wells containing tested compounds or AA. The AAPH concentration was chosen on the basis of preliminary experiments—17.5 mmol/L in HUVEC experiments, and 15.0 mmol/L in the case of astrocytes.

Data set [5] deals with astrocytes. The data set is described as follows: WST-1 viability under AAPH-induced oxidative stress, astrocytes. Type of data set: cell-based, human. Conditions: ½ × TPC (benperidol 5 μg/L, bromperidol 12.5 μg/L); AAPH 15 mmol/L. How it is done:
as §4, §5

Data set [6] deals with AChE (Homo sapiens, UniProt P22303). The data set can be described thus: Synergism of antipsychotics with donepezil/rivastigmine (binary mixtures), AChE.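 Further: antipsychotic concentration kept fixed across all measurements, selected from estimated therapeutic plasma levels.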 Conditions: ComboSyn.
Data set [7] concerns the target T4, BuChE (Homo sapiens, UniProt P06276). The data set can be described thus: Synergism of antipsychotics with donepezil/rivastigmine (binary mixtures), BuChE.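 Further: combination index derived by median-effect analysis of combined drug effects on the cholinesterase, with values below 1 meaning synergism, exactly 1 additivity and above 1 antagonism.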 Particulars: ComboSyn.
The test system of data set [8] is BuChE. Conditions: read-out: IC50 BuChE, cited from earlier work.
Data set [9] deals with AChE. Particulars: read-out: IC50 AChE, cited from earlier work.
For data set [10], the target named is T4, BuChE. The data set is described as follows: Kinetic parameters of enzymatic reaction (Hanes–Woolf), BuChE. Details: The solution of plasma 200-fold diluted with 0.9% NaCl; from tissue; host or cells: citrated plasma from blood of healthy human donors. The class given is biochemical. The procedure: Kinetic parameters were obtained on the basis of three individual experiments carried out on different biological materials. For this purpose, various concentrations of substrates (ATC and BTC) were used in experiments. The type of inhibition and kinetic parameters of enzymatic reactions were obtained by linear regression using the Hanes–Woolf equations.
as §3

Where [11] appears, read: rivastigmine 5 μmol/L + antipsychotic at TPCmax.
The mark [12] stands for this setting: reference values according to the literature ref 28.
Where [13] appears, read: reference values according to the literature ref 31.
Where [14] appears, read: reference values according to the literature ref 32.
Setting [15] is: reference values according to the literature ref 33.

T4 sequence (P06276 29-602): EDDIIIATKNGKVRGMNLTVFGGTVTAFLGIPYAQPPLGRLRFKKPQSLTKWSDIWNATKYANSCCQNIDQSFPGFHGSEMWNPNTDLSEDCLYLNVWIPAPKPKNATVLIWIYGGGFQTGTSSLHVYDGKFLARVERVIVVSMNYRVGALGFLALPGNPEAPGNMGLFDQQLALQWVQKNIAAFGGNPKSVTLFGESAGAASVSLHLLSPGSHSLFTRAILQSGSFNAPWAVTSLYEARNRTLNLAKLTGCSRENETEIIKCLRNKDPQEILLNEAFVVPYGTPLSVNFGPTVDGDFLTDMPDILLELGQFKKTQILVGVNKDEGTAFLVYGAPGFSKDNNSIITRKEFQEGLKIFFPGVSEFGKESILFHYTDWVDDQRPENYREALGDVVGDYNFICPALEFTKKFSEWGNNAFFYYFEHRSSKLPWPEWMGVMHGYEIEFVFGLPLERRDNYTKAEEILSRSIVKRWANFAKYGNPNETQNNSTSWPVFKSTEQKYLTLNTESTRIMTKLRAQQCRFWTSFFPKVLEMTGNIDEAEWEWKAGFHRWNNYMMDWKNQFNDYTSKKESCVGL
Chain of AChE (P22303 32-617 isoform P22303-2 limits assumed): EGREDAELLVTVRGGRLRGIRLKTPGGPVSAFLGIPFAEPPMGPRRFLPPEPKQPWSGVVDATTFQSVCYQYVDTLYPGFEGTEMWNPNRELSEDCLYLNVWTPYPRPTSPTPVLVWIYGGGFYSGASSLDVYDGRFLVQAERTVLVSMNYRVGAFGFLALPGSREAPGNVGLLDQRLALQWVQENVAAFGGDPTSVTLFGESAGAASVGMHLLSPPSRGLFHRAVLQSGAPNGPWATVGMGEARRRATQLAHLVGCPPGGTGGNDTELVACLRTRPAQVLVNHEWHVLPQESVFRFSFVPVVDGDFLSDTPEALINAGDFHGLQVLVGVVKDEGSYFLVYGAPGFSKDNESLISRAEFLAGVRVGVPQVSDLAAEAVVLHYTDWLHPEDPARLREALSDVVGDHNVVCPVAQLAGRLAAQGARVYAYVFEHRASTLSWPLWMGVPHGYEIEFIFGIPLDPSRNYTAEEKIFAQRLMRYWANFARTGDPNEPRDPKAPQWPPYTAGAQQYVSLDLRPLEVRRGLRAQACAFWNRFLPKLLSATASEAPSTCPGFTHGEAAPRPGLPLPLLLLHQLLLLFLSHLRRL
T3 sequence (P05067 672-713 limits assumed): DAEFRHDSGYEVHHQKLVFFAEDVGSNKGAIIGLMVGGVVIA
T2 sequence (P06276 29-602): as the sequence (P06276 29-602) above
T1 sequence (P22303 32-617 isoform P22303-2 limits assumed): as the sequence (P22303 32-617 isoform P22303-2 limits assumed) above

`O=C(CCCN1CCC(O)(c2ccc(Br)cc2)CC1)c1ccc(F)cc1` [Bromperidol, bromperidol] yielded an AChE reaction velocity in data set [1] of 0.228 ± 0.029 A/min. The molecule further yielded a BuChE reaction velocity in data set [2] of 0.230 ± 0.023 A/min. Moreover, in data set [3] (12.5 μg/L, 48 h, compared with the control (100% Aβ aggregation)), the “percentage value of Aβ inhibition” value was found to be 51.2%. The “effect on Aβ aggregation after a longer incubation time” value in data set [3] (24 and 48 h, both tested concentrations) is recorded as “substantially inhibit”. Besides, the “viability of HUVEC under AAPH” value in data set [4] (TPC (bromperidol 25 μg/L, quetiapine 400 μg/L)) was found to be 82.5%; in data set [4] (½ × TPC (bromperidol 12.5 μg/L, quetiapine 200 μg/L)), 66.8%. The “astrocyte viability under AAPH” value in data set [5] was determined as 68.9%. The “CI (combination index), AChE” value in data set [6] (donepezil 0.005 μmol/L + antipsychotic at TPCmax, CI < 1 synergism, > 1 antagonism) is 0.07; in data set [6] (donepezil 0.01 μmol/L + antipsychotic at TPCmax) it was 0.78; in data set [6] (donepezil 0.02 μmol/L + antipsychotic at TPCmax) it was 0.81; in [6] (donepezil 0.05 μmol/L + antipsychotic at TPCmax), 0.81; in [6] (donepezil 0.1 μmol/L + antipsychotic at TPCmax) it was 0.80; in data set [6] (setting [11]) it was 0.32. Further, the “CI (combination index), AChE” value in [6] (rivastigmine 10 μmol/L + antipsychotic at TPCmax) was determined as 0.38; in [6] (rivastigmine 15 μmol/L + antipsychotic at TPCmax), 0.46; in data set [6] (rivastigmine 25 μmol/L + antipsychotic at TPCmax), 0.50; in [6] (rivastigmine 40 μmol/L + antipsychotic at TPCmax) it was 0.53; in data set [6] (rivastigmine 50 μmol/L + antipsychotic at TPCmax), 0.49; in [6] (rivastigmine 75 μmol/L + antipsychotic at TPCmax) it was 0.55. Further, in [6] (rivastigmine 100 μmol/L + antipsychotic at TPCmax), the “CI (combination index), AChE” value was determined as 0.60. Moreover, the “CI (combination index), BuChE” value is given as 0.43 in data set [7] (donepezil 2 μmol/L + antipsychotic at TPCmax); 0.52 in [7] (donepezil 5 μmol/L + antipsychotic at TPCmax); 0.57 in data set [7] (donepezil 10 μmol/L + antipsychotic at TPCmax); 0.70 in [7] (donepezil 20 μmol/L + antipsychotic at TPCmax); 0.89 in data set [7] (donepezil 100 μmol/L + antipsychotic at TPCmax); 0.18 in data set [7] (rivastigmine 0.05 μmol/L + antipsychotic at TPCmax). Besides, the “CI (combination index), BuChE” value is 0.30 in data set [7] (rivastigmine 0.1 μmol/L + antipsychotic at TPCmax); 0.57 in data set [7] (rivastigmine 0.25 μmol/L + antipsychotic at TPCmax); 0.74 in data set [7] (rivastigmine 0.5 μmol/L + antipsychotic at TPCmax); 0.86 in data set [7] (rivastigmine 0.75 μmol/L + antipsychotic at TPCmax); 0.92 in data set [7] (rivastigmine 1 μmol/L + antipsychotic at TPCmax); 0.96 in data set [7] (rivastigmine 2.5 μmol/L + antipsychotic at TPCmax). Further, the “CI (combination index), BuChE” value in data set [7] (setting [11]) was 0.96.
With `COc1cc2c(cc1OC)C(=O)C(CC1CCN(Cc3ccccc3)CC1)C2` (stereo not drawn) [Donepezil, donepezil], the concentration for half-maximal inhibition (IC50) in data set [8] (reference values according to the literature ref 29) was […]; in [8] (reference values according to the literature ref 30) it was […].
As to `CCN(C)C(=O)Oc1cccc([C@H](C)N(C)C)c1` [Rivastigmine, rivastigmine], the concentration for half-maximal inhibition (IC50) in [9] (setting [12]) was […]; in data set [9] (setting [13]), […]; in data set [9] (setting [14]), […]; in [9] (setting [15]), […]; in [8] (setting [12]), […]; in [8] (setting [13]), […]. Besides, the half-inhibitory concentration (IC50) is […] in [8] (setting [14]) and […] in data set [8] (setting [15]). Besides, the “Vmax(i) BuChE” value in data set [10] (compound at its IC50) was determined as […]. In addition, the “type of inhibition of BuChE” value in data set [10] (from Km(i), Vmax(i) vs Km, Vmax, mixed inhibition) is reported as “noncompetitively”.

Source of the values: publication PMC9102502, “The Influence of Selected Antipsychotic Drugs on Biochemical Aspects of Alzheimer’s Disease” (International Journal of Molecular Sciences, 2022).
